Experimental findings from US11345912B2, “Directed evolution of multivalent glycopeptides that tightly bind to target proteins” (Brandeis University, priority 2013, dated 2022) are described below.

This assay has as its system 2G12. Nature of the assay: Binding curve and KD determination of 2G12-glycopeptide interaction (radiolabeled glycopeptide, protein G magnetic bead capture, scintillation counting). The settings on record: Table 4, error = standard error of fit; for Fmax [%]: maximal fraction bound from curve fit; for Kd: ribosomally translated radiolabeled glycopeptide with His6/FLAG tag, room temperature, fit Fbound=(Fmax[2G12])/(KD+[2G12]). The essentials: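 Radiolabeled glycopeptide (<4 pmol) from PURE-system translation with click glycosylation was incubated with 100 nM 2G12 at room temperature. Complexes were captured on protein G beads and eluted at 70° C. Bound and unbound fractions were counted by scintillation, run at least in triplicate, and KD derived from binding curves.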

As a reminder, the Kd is the constant that tells how readily two partners part at equilibrium. Higher therefore signals a looser complex. Consider `CC[C@H](C)[C@H](NC(=O)[C@@H](NC(=O)[C@@H](NC(=O)[C@H](Cc1c[nH]cn1)NC(=O)[C@H](CC(N)=O)NC(=O)[C@H](CC(=O)O)NC(=O)[C@H](CCc1cn(C2CCC(OC3O[C@H](CO[C@H]4O[C@H](CO[C@H]5O[C@H](CO)[C@@H](O)[C@H](O)[C@@H]5O[C@H]5O[C@H](CO)[C@@H](O)[C@H](O)[C@@H]5O)[C@@H](O)[C@H](O[C@H]5O[C@H](CO)[C@@H](O)[C@H](O)[C@@H]5O[C@H]5O[C@H](CO)[C@@H](O)[C@H](O)[C@@H]5O)[C@@H]4O)[C@@H](O)[C@H](O[C@H]4O[C@H](CO)[C@@H](O)[C@H](O)[C@@H]4O[C@H]4O[C@H](CO)[C@@H](O)[C@H](O)[C@@H]4O[C@H]4O[C@H](CO)[C@@H](O)[C@H](O)[C@@H]4O)[C@@H]3O)CC2)nn1)NC(=O)[C@@H](NC(=O)[C@H](CCCCN)NC(=O)[C@H](CCC(=O)O)NC(=O)[C@H](CCCNC(=N)N)NC(=O)[C@H](CCCCN)NC(=O)[C@H](CS)NC(=O)[C@H](CC(N)=O)NC(=O)[C@@H](NC(=O)[C@H](CCCCN)NC(=O)[C@@H](NC(=O)[C@H](C)NC(=O)[C@H](CCc1cn(C2CCC(OC3O[C@H](CO[C@H]4O[C@H](CO[C@H]5O[C@H](CO)[C@@H](O)[C@H](O)[C@@H]5O[C@H]5O[C@H](CO)[C@@H](O)[C@H](O)[C@@H]5O)[C@@H](O)[C@H](O[C@H]5O[C@H](CO)[C@@H](O)[C@H](O)[C@@H]5O[C@H]5O[C@H](CO)[C@@H](O)[C@H](O)[C@@H]5O)[C@@H]4O)[C@@H](O)[C@H](O[C@H]4O[C@H](CO)[C@@H](O)[C@H](O)[C@@H]4O[C@H]4O[C@H](CO)[C@@H](O)[C@H](O)[C@@H]4O[C@H]4O[C@H](CO)[C@@H](O)[C@H](O)[C@@H]4O)[C@@H]3O)CC2)nn1)NC=O)[C@@H](C)O)[C@@H](C)O)[C@@H](C)O)C(C)C)[C@@H](C)O)C(=O)N[C@@H](CCc1cn(C2CCC(OC3O[C@H](CO[C@H]4O[C@H](CO[C@H]5O[C@H](CO)[C@@H](O)[C@H](O)[C@@H]5O[C@H]5O[C@H](CO)[C@@H](O)[C@H](O)[C@@H]5O)[C@@H](O)[C@H](O[C@H]5O[C@H](CO)[C@@H](O)[C@H](O)[C@@H]5O[C@H]5O[C@H](CO)[C@@H](O)[C@H](O)[C@@H]5O)[C@@H]4O)[C@@H](O)[C@H](O[C@H]4O[C@H](CO)[C@@H](O)[C@H](O)[C@@H]4O[C@H]4O[C@H](CO)[C@@H](O)[C@H](O)[C@@H]4O[C@H]4O[C@H](CO)[C@@H](O)[C@H](O)[C@@H]4O)[C@@H]3O)CC2)nn1)C(=O)N[C@@H](CCCNC(=N)N)C(=O)N[C@@H](CO)C(=O)N[C@H](C(=O)N1CCC[C@H]1C(=O)N[C@@H](Cc1c[nH]c2ccccc12)C(=O)N[C@@H](Cc1ccc(O)cc1)C(=O)N[C@H](C(=O)N[C@@H](Cc1ccc(O)cc1)C(=O)N[C@@H](CCCNC(=N)N)C(=O)N[C@@H](Cc1c[nH]c2ccccc12)C(=O)N[C@@H](CC(C)C)C(=O)N1CCC[C@H]1C(=O)N[C@@H](CC(N)=O)C(=O)NCC(=O)N[C@@H](CO)C(=O)NCC(=O)N[C@@H](CO)C(=O)N[C@@H](CC(C)C)C(=O)NCC(=O)N[C@@H](Cc1c[nH]cn1)C(=O)N[C@@H](Cc1c[nH]cn1)C(=O)N[C@@H](Cc1c[nH]cn1)C(=O)N[C@@H](Cc1c[nH]cn1)C(=O)N[C@@H](Cc1c[nH]cn1)C(=O)N[C@@H](Cc1c[nH]cn1)C(=O)N[C@@H](CCCNC(=N)N)C(=O)N[C@@H](CC(=O)O)C(=O)N[C@@H](Cc1ccc(O)cc1)C(=O)N[C@@H](CCCCN)C(=O)N[C@@H](CC(=O)O)C(=O)N[C@@H](CC(=O)O)C(=O)N[C@@H](CC(=O)O)C(=O)N[C@@H](CC(=O)O)C(=O)N[C@@H](CCCCN)C(=O)O)[C@@H](C)O)[C@@H](C)CC` (stereo partly shown) [Clone 10V1, XATKTNCKREKTXDNHVTIXRSIPWYTYRWLPN], for which the “Fmax [%]” value is listed as 97 ± 2.1% and binding was put at a Kd of 1.9 ± 0.17 nM.
As to `CC[C@H](C)[C@H](NC(=O)[C@H](CCCNC(=N)N)NC(=O)[C@@H]1CCCN1C(=O)[C@H](CC(=O)O)NC(=O)[C@H](CCC(=O)O)NC(=O)[C@@H](NC(=O)[C@H](C)NC(=O)[C@H](Cc1ccc(O)cc1)NC(=O)[C@H](CCC(N)=O)NC(=O)[C@H](CCc1cn(C2CCC(OC3O[C@H](CO[C@H]4O[C@H](CO[C@H]5O[C@H](CO)[C@@H](O)[C@H](O)[C@@H]5O[C@H]5O[C@H](CO)[C@@H](O)[C@H](O)[C@@H]5O)[C@@H](O)[C@H](O[C@H]5O[C@H](CO)[C@@H](O)[C@H](O)[C@@H]5O[C@H]5O[C@H](CO)[C@@H](O)[C@H](O)[C@@H]5O)[C@@H]4O)[C@@H](O)[C@H](O[C@H]4O[C@H](CO)[C@@H](O)[C@H](O)[C@@H]4O[C@H]4O[C@H](CO)[C@@H](O)[C@H](O)[C@@H]4O[C@H]4O[C@H](CO)[C@@H](O)[C@H](O)[C@@H]4O)[C@@H]3O)CC2)nn1)NC(=O)[C@H](CCCNC(=N)N)NC(=O)[C@H](Cc1ccc(O)cc1)NC(=O)[C@H](CCC(=O)O)NC(=O)[C@H](CC(C)C)NC(=O)[C@H](CO)NC(=O)[C@H](CC(N)=O)NC(=O)[C@H](CC(C)C)NC(=O)[C@@H](NC(=O)[C@H](CO)NC(=O)[C@H](CCCNC(=N)N)NC(=O)[C@H](CCc1cn(C2CCC(OC3O[C@H](CO[C@H]4O[C@H](CO[C@H]5O[C@H](CO)[C@@H](O)[C@H](O)[C@@H]5O[C@H]5O[C@H](CO)[C@@H](O)[C@H](O)[C@@H]5O)[C@@H](O)[C@H](O[C@H]5O[C@H](CO)[C@@H](O)[C@H](O)[C@@H]5O[C@H]5O[C@H](CO)[C@@H](O)[C@H](O)[C@@H]5O)[C@@H]4O)[C@@H](O)[C@H](O[C@H]4O[C@H](CO)[C@@H](O)[C@H](O)[C@@H]4O[C@H]4O[C@H](CO)[C@@H](O)[C@H](O)[C@@H]4O[C@H]4O[C@H](CO)[C@@H](O)[C@H](O)[C@@H]4O)[C@@H]3O)CC2)nn1)NC=O)[C@@H](C)O)[C@@H](C)O)C(=O)N[C@@H](CCCNC(=N)N)C(=O)N[C@@H](CCc1cn(C2CCC(OC3O[C@H](CO[C@H]4O[C@H](CO[C@H]5O[C@H](CO)[C@@H](O)[C@H](O)[C@@H]5O[C@H]5O[C@H](CO)[C@@H](O)[C@H](O)[C@@H]5O)[C@@H](O)[C@H](O[C@H]5O[C@H](CO)[C@@H](O)[C@H](O)[C@@H]5O[C@H]5O[C@H](CO)[C@@H](O)[C@H](O)[C@@H]5O)[C@@H]4O)[C@@H](O)[C@H](O[C@H]4O[C@H](CO)[C@@H](O)[C@H](O)[C@@H]4O[C@H]4O[C@H](CO)[C@@H](O)[C@H](O)[C@@H]4O[C@H]4O[C@H](CO)[C@@H](O)[C@H](O)[C@@H]4O)[C@@H]3O)CC2)nn1)C(=O)N[C@@H](C)C(=O)N[C@@H](CO)C(=O)N[C@H](C(=O)N1CCC[C@H]1C(=O)N[C@@H](Cc1ccc(O)cc1)C(=O)N[C@H](C(=O)N[C@@H](Cc1ccc(O)cc1)C(=O)N[C@@H](Cc1c[nH]c2ccccc12)C(=O)N[C@@H](Cc1c[nH]c2ccccc12)C(=O)N1CCC[C@H]1C(=O)NCC(=O)N[C@@H](CO)C(=O)NCC(=O)N[C@@H](CO)C(=O)N[C@@H](CC(C)C)C(=O)NCC(=O)N[C@@H](Cc1c[nH]cn1)C(=O)N[C@@H](Cc1c[nH]cn1)C(=O)N[C@@H](Cc1c[nH]cn1)C(=O)N[C@@H](Cc1c[nH]cn1)C(=O)N[C@@H](Cc1c[nH]cn1)C(=O)N[C@@H](Cc1c[nH]cn1)C(=O)N[C@@H](CCCNC(=N)N)C(=O)N[C@@H](CC(=O)O)C(=O)N[C@@H](Cc1ccc(O)cc1)C(=O)N[C@@H](CCCCN)C(=O)N[C@@H](CC(=O)O)C(=O)N[C@@H](CC(=O)O)C(=O)N[C@@H](CC(=O)O)C(=O)N[C@@H](CC(=O)O)C(=O)N[C@@H](CCCCN)C(=O)O)[C@@H](C)O)[C@@H](C)CC` (stereo partly shown) [Clone 10F9, XRSTLNSLEYRXQYATEDPRIRXASIPYTYWWP], the “Fmax [%]” value amounted to 86 ± 1.2% and the affinity, expressed as Kd, was 3.1 ± 0.17 nM.
